Source: patent publication US20180207228A1, “PEPTIDE COMBINATIONS AND USES THEREOF FOR TREATING GRASS ALLERGY” (ALK-Abelló A/S, priority 2015, published 2018)
Like-named read-outs stand apart in the source and are kept apart here. Where no end group is shown, it is not given here.

How the values were obtained:
[1] = Extended solubility and short term stability study (visual, U-HPLC recovery, DLS, 90LS, UV-VIS, sum of scores); conditions: for solubility: pH 4.5
Method: For that purpose, the peptides were provided as acetate salts (produced by Innovagen® at a >10 mg scale of manufacturing). To take into account batch-to-batch variations, some peptides were tested from other batches of the manufacturer Innovagen®, as well as from another manufacturer (Almac) and from in-house production. Solubility experiments were performed on peptide in solution in concentrations ranging from 0.5 mg/mL to 3 mg/mL (dry matter)—with the following solvents: • Water • Acetate buffer, pH 4.5 (25 mM sodium acetate containing 250 mM D-Mannitol) • Phosphate buffer, pH 7.0 (25 mM sodium phosphate containing 250 mM D-Mannitol) • Glycine buffer, pH 8.5 (25 mM glycine containing 250 mM D-Mannitol)
The solubility of the peptides was initially investigated by visual inspection and U-HPLC recovery. Visual inspection included assessment of turbidity and presence of particles/aggregates of each peptide solution before and after centrifugation as well as visual inspection of pelleted material. The visual inspection were reported as “clear solution”, “very small precipitation only visible with a magnifier”, “precipitation visible/turbid solution” or “more precipitation/turbid solution”. Filtration of peptide solutions were conducted using syringe based filters containing a polyethersulfone (PES) membrane chemistry and a pore size of 0.2 μm. The amount of the peptide in the supernatant of a filtered sample was determined using U-HPLC with reverse phase chromatography and recovery were determined as described in Example 5.
Peptide solutions were investigated at a time point of 1 hour after production, but were also repeated at later time point (e.g. 24. 48 or 96 hours) to investigate the stability of the peptides.
Peptide solutions were investigated to determine the presence of turbidity/particles/aggregates by use of optical density (OD) and change in UV-VIS absorbance at a wavelength of 320 nm, of the filtrate. […] In addition or as an alternative, the amount of the peptide in the supernatant of a filtered sample was determined using U-HPLC as described above, with the exception that the recovery was determined by dividing the peak area of the filtered sample in relation to the peak area in the original solution prior to filtration. See also Example 5 for further details regarding UV-VIS, and recovery measured by U-HPLC.
The peptides were scored in relation to the outcome of the above mentioned tests: For each peptide in a given buffer and at a given concentration, a sum of test scores was calculated and the sum used to rank the peptides according to solubility: • 1. […] DLS peak 1 number 3 nm gave a score of 1, 3-10 nm gave a score of 2, 10-100 nm gave a score of 3, >100 nm gave a score of 4. • 5. 90LS at 400 nm: Intensity <450 gave a score of 1, <800 gave a score of 2, >800 gave a score of 3. • 6. UV-VIS change in absorbance at 320 nm within 24 hours: 0.01 gave a score of 1, ≤0.05 gave a score of 2, 0.0.2 gave a score of 3 and >0.2 gave a score of 4.

[2] = test system: grass pollen allergic donor derived T cell lines; assay: Dose response titration in T cell proliferation assay; format: cell-based, human; conditions: single peptides, FIG. 21
Method: The dose-response relationship was tested by measuring the percentage of donor response (i.e. the percentage of donor coverage) in concentrations of 2.0, 0.1, 0.005 and 0.00025 μg/ml for the peptide combinations and in concentrations of 2.0, 0.2, 0.02 and 0.002 μg/ml for single peptides. The donor response was determined using T cell proliferation data as described in Example 3.
Relative magnitude value for a peptide or a peptide combination was calculated as percentage of highest T cell response to an allergen or a mix, by the same donor. In this way, allergen or peptide combination with highest magnitude of T cell response gets a value of 100 and T cell response magnitude of remaining peptides/peptide combinations are normalized or calculated relative to 100, for example Relative magnitude=100*(T cell response magnitude of peptide or combination/Highest T cell response in a donor). Relative magnitude were calculated mainly on Phl p 1. For donors non reactive to Phl p 1, Phl p 5 was used as reference
The donors were selected by seeking to maximize the HLA class II diversity in the donor cohort.
For peptide combinations, two set-ups were used:
A) Concentrations of 2.0, 0.1, 0.005 and 0.00025 μg/ml were tested on a set of T cell lines derived from 9 grass pollen allergic donors (same experiment as the data shown in FIG. 7b.).
B) Concentrations of 2.0, 0.066, 0.0022 and 0.00007 μg/ml were used on a set of T cell lines derived from 18 grass pollen allergic donors (same set as the donors used for testing of single peptides as described above).
Relative magnitude value for a peptide or a peptide combination was calculated as percentage of highest T cell response to an allergen or a mix, by the same donor. In this way, allergen or peptide combination with highest magnitude of T cell response gets a value of 100 and T cell response magnitude of remaining peptides/peptide combinations are normalized or calculated relative to 100, for example Relative magnitude=100*(T cell response magnitude of peptide or combination/Highest T cell response in a donor). […]

[3] = Bio-stability in 25% human serum (T½, degradation pattern by UHPLC and MS); format: in vitro ADME
Method: The supernatant was analyzed by UHPLC-UV/VIS and the peak-height/peak-area of the original peptide was determined at each time point. T½ of the original peptide was estimated by plotting Ln (peak-area) as a function of time. […] Therefore, the degradation pattern of each peptide was additionally studied. Extra peaks compared to the peak of the original peptide in the chromatogram were notified as potential degradation products. To assess the degradation pattern of each peptide and identify degradation products, the test samples were also investigated by mass spectroscopy (MS). Some peptides, for example, may be prone to cleavage by endopeptidases resulting in short peptide fragments unfit for binding to the HLA binding site, whereas other peptides may be more prone to cleavage by exopeptidases which may cleave one or more amino acid residues from the N or C-terminal end of the peptide resulting in a conserved HLA binding. […] Therefore, it is important to look at both the MS data and functional data to estimate the extent and effect of the degradation.

solubility in aqueous solutions and short-term stability [1] | solubility [1] | solubility in all the test samples (concentrations and pH tested), all solubility tests [1] | Substance | other results
sufficiently soluble | acceptable solubility |  | WGAIWRIDTPDKLTGPFTVR-OH [peptide 211] | 
sufficiently soluble | acceptable solubility | good solubility | TDDNEEPIAPYHFDLSGHAF-OH [peptide 204] | 
sufficiently soluble | acceptable solubility | good solubility | STGGAYESYKFIPALEAAVK-OH [compound 71] | average relative magnitude calculated over all donors [2]: high
 |  |  | AYESYKFIPALEAAVKQAYA-OH [peptide 285] | solubility by ranking scheme based on a sum of scores ([1]; 3 mg/ml, buffers tested): good solubility; solubility in aqueous solutions and short-term stability ([1]; pH in the range of 4.5 to 8.5): sufficiently soluble; <−3aa (%) ([3]; degradation details at 60 min): 0%; Sum full length or −1aa to −3aa ([3]; degradation details at 60 min): 100%; −1aa to −3aa (%) ([3]; degradation details at 60 min): 34%; half-life ([3]; male, 37° C.): 1.37 h; remaining at 1 h ([3]; male, degradation details at 60 min, read-out: Full length (%)): 66%
sufficiently soluble | acceptable solubility |  | DKYRTFVATFGAASNKAFAE-OH [peptide 231] | 
